In patent publication US4273782A, “Inhibition of thromboxane synthetase by 3-(1-Imidazolylalkyl) indoles” (Pfizer Inc., priority 1979, dated 1981):
Structures can show the parent of a compound that is named as a salt.

What was measured:
[1] = target: T1, prostacyclin synthetase (Sus scrofa, UniProt A0A5G2QT35); conditions: pre-incubation of the enzyme; cited from earlier work
T1 construct: Pig aorta microsomes; from tissue; host or cells: pig aorta (microsomes)
T1 sequence (A0A5G2QT35 1-497): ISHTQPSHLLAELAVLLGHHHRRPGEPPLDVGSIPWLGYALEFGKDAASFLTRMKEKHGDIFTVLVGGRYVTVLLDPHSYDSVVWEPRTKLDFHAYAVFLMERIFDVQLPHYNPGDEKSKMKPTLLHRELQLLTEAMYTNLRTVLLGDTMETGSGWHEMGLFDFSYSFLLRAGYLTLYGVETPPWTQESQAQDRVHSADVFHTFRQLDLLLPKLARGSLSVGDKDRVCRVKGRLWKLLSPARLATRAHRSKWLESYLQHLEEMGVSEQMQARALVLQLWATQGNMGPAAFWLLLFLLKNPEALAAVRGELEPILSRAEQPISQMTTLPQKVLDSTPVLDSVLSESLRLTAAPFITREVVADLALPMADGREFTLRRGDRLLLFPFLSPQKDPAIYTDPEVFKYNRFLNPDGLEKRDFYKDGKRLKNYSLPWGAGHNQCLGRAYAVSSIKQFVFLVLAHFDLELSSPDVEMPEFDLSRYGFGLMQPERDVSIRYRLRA

[2] = target: T2, thromboxane synthetase (Homo sapiens, UniProt P24557); test: Thromboxane A2 (TxA2) synthetase inhibition, human platelet microsomes, rabbit aorta bioassay; type: biochemical; conditions: test compound pre-incubated with enzyme for 5 minutes, read-out: Molar concentration causing 50% inhibition of thromboxane synthetase
T2 construct: human platelet microsomes; from tissue; host or cells: human blood platelets (microsomes, indomethacin pre-treated)
T2 sequence (P24557 1-533): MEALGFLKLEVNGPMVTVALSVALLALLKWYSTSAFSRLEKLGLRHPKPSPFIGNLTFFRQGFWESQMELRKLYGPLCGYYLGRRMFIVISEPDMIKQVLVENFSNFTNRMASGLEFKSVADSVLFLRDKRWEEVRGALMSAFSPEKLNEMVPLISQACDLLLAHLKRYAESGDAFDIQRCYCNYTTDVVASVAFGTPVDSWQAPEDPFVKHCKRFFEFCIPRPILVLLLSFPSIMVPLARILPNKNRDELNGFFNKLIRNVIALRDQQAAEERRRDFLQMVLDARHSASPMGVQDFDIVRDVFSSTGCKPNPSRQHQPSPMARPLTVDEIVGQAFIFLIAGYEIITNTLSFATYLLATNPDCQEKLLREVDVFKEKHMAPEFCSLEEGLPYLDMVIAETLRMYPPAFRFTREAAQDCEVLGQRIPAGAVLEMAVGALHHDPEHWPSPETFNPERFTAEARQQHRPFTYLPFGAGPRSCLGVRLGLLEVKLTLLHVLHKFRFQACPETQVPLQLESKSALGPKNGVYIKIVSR
Method: 3. Thromboxane A2 (TxA2) Synthetase
Indomethacin pre-treated human platelet microsomes (Science, 1976, 193, 163) are incubated (2 min.: 0° C.) with PGH2 (produced as in 1) and aliquots of the reaction mixture superfused over two rabbit aorta spirals which are separated by a delay coil (2 min.). The latter is required to allow the selective decay of the more unstable thromboxane A2 (Proc. Nat. Acad. Sci., 1975, 72, 2994) thereby enabling the separate measurement of increased isometric tension due to the TxA2 formed and the PGH2 remaining. The test compound is pre-incubated with enzyme for 5 minutes, and its ability to inhibit the thromboxane synthetase enzyme is measured as its reduction of the TxA2 component of the isometric tension.

[3] = target: T1, prostacyclin synthetase; test: Prostacyclin (PGI2) synthetase inhibition, pig aorta microsomes, rabbit aorta bioassay; type: biochemical; conditions: test compound pre-incubated with enzyme for 5 minutes, read-out: Molar concentration causing 50% inhibition of prostacyclin synthetase
Method: The effect of the compounds of the formula (I) on the thromboxane synthetase enzyme, and the prostacyclin synthetase and cyclooxygenase enzymes has been measured by the following in vitro enzyme assays:
2. Prostacyclin (PGI2) Synthetase
Pig aorta microsomes (Nature, 1976, 263, 663) are incubated (30 sec.: 22° C.) with PGH2 produced as in 1) and aliquots bio-assayed as in 1. […] The test compound is then pre-incubated with the enzyme for 5 minutes, and its ability to prevent the decrease in tension is measured.
The results of these tests are shown in the following Table, which gives the molar concentration of each compound which caused a 50% change in the effect of the relevant enzyme on isometric tension, i.e. caused a 50% inhibition of the action of that enzyme.

[4] = tested on: cyclo-oxygenase enzyme; conditions: cited from earlier work
[5] = tested on: human blood platelet aggregation; conditions: human blood platelets; cited from earlier work
[6] = rabbit; intravenous arachidonic acid; cited from earlier work
[7] = tested on: aggregation of platelets; conditions: rat, abdominal aorta; cited from earlier work

Row | Compound | IC50 [2] [nM] | IC50 [3] [µM] | other results
1 | 15-hydroxy-arachidonic acid | – | – | prevention of the decrease in PGH2-induced tension (selective PGI2 synthetase inhibitor) [1]: prevented completely
2 | N#CCCn1cc(Cn2ccnc2)c2ccccc21 [Example 1, 1-(2-Cyanoethyl)-3-(1-imidazolylmethyl)indole fumarate] | 18 | 24 | –
3 | N#Cc1ccc(Cn2cc(Cn3ccnc3)c3ccccc32)cc1 [Example 4, 1-(4-Cyanobenzyl)-3-(1-imidazolylmethyl)indole] | 4.8 | 2.2 | –
4 | CCOC(=O)c1ccc(Cn2cc(Cn3ccnc3)c3ccccc32)cc1 [Example 7, 1-(4-Ethoxycarbonylbenzyl)-3-(1-imidazolylmethyl)indole hemi-fumarate] | 0.16 | > 100 | –
5 | CCOC(=O)Cn1cc(Cn2ccnc2)c2ccccc21 [Example 10, 1-Ethoxycarbonylmethyl-3-(1-imidazolylmethyl)indole] | 12 | > 100 | –
6 | O=C(O)CCn1cc(Cn2ccnc2)c2ccccc21 [Example 11, 1-(2-Carboxyethyl)-3-(1-imidazolylmethyl)indole fumarate monohydrate] | 0.04 | > 100 | –
7 | CC(C)c1c(Cn2ccnc2)c2ccccc2n1CCC(=O)O [Example 13] | 2 | 100 | –
8 | O=C(O)CCn1c(C2CC2)c(Cn2ccnc2)c2ccccc21 [Example 14, 1-carboxyethyl-2-cyclopropyl-3-(1-imidazolylmethyl)indole] | 0.037 | 40 | –
9 | O=C(O)CCn1cc(Cn2ccnc2)c2cc(Br)ccc21 [Example 20, 5-bromo-1-(2-carboxyethyl)-3-(1-imidazolylmethyl)indole] | – | > 100 | –
10 | O=C(O)Cn1cc(Cn2ccnc2)c2ccccc21 [Example 23, 1-Carboxymethyl-3-(1-imidazolylmethyl)indole] | 0.8 | > 100 | –
11 | O=C(O)c1ccc(Cn2cc(Cn3ccnc3)c3ccccc32)cc1 [Example 24, 1-(4-Carboxybenzyl)-3-(1-imidazolylmethyl)indole] | 0.16 | > 100 | –
12 | CC(=O)Oc1ccccc1C(=O)O [aspirin] | – | – | effect on prostacyclin and thromboxane A2 levels [4]: reduce both the prostacyclin and thromboxane A2 levels; inhibition of the cyclo-oxygenase enzyme [4]: inhibit the cyclo-oxygenase enzyme; inhibitory activity in vitro against a variety of aggregating agents [5]: show inhibitory activity in vitro; protection from the lethal effect of arachidonic acid injection [6]: protect the rabbit from the lethal effect of the injection
13 | O=C1C(CC[S+]([O-])c2ccccc2)C(=O)N(c2ccccc2)N1c1ccccc1 (centres unmarked) [sulphinpyrazone] | – | – | inhibitory activity in vitro against a variety of aggregating agents [5]: show inhibitory activity in vitro; protection from the lethal effect of arachidonic acid injection [6]: protect the rabbit from the lethal effect of the injection; prevention of aggregation of platelets in an extra corporeal loop [7]: prevent the aggregation of platelets

The next lines start with results.

Row | IC50 [2] [nM] | IC50 [3] [µM] | Compound | other results
14 | 2.4 | > 100 | O=C(O)c1cccc(Cn2cc(Cn3ccnc3)c3ccccc32)c1 [Example 25, 1-(3-Carboxybenzyl)-3-(1-imidazolylmethyl)indole] | –
15 | 140 | 100 | NC(=O)Cn1cc(Cn2ccnc2)c2ccccc21 [Example 27, 1-Carbamoylmethyl-3-(1-imidazolylmethyl)indole] | –
16 | 6 | 70 | CC(C)c1c(Cn2ccnc2)c2ccccc2n1CCC(N)=O [Example 28, 1-(2-Carbamoylethyl)-2-isopropyl-3-(1-imidazolylmethyl)indole] | –
17 | 130 | – | NC(=O)c1ccc(Cn2cc(Cn3ccnc3)c3ccccc32)cc1 [Example 38, 1-(4-Carbamoylbenzyl)-3-(1-imidazolylmethyl)indole] | –
18 | 0.034 | 45 | c1ccc2c(c1)c(Cn1ccnc1)cn2CCc1nnn[nH]1 [Example 42, 1-[2-(5-Tetrazolyl)ethyl]-3-(1-imidazolylmethyl)indole] | –
19 | 2.1 | – | CNC(=O)NCCCn1cc(Cn2ccnc2)c2ccccc21 [Example 46, N-Methyl-N'-[3-[3-(imidazol-1-ylmethyl)indol-1-yl]propyl]urea] | –
20 | 5.5 | 40 | O=C(NCCCn1cc(Cn2ccnc2)c2ccccc21)Nc1ccccc1 [Example 47, N-Phenyl-N'-[3-[3-(imidazol-1-ylmethyl)indol-1-yl]propyl]urea] | –
21 | 1 | 100 | O=S(=O)(NCCCn1cc(Cn2ccnc2)c2ccccc21)c1ccccc1 [Example 48, 1-(3-Benzenesulphonylaminopropyl)-3-(1-imidazolylmethyl)indole] | –
